# According to patent US11484576B2, “Methods of promoting corticospinal neuronal outgrowth in neuronal lesions using a pro-regenerative human osteopontin fragment” (THE CHILDREN'S MEDICAL CENTER CORPORATION, priority 2017, dated 2022):
# Experiments:
# [1] = system: injured mice; assay: Adverse effects of systemic potassium channel blockers in injured mice; type: in vivo; details: doses above 1 mg/kg (3 mg/kg tested), injured mice
# Protocol: Chemicals and Antibodies. For systematic administration (i.p.), Quipazine [Sigma (Q1004), 0.2 mg/kg), SKF-82197 [Tocris (1447) 0.1 mg/kg], and 8-OH-DPAT [Tocris (0529), 0.1 mg/kg), 4AP [Sigma (275875), 1 mg/kg, 3 mg/kg), 4AP-MeOH [Santa Cruz (sc-267247), (1 mg/kg)] were dissolved in saline. Tamoxifen (Sigma, 10540-29-1) was dissolved in oil. For diphtheria toxin mediated cell ablation, we purchased the diptheria toxin from Sigma (D0564). For immunostaining, the primary antibody used were chicken anti-GFP [Abcam (Cat: ab13970)], rabbit anti-RFP [Abcam (Cat: ab34771)], rabbit anti-PKCγ [Santa Cruz (sc211)], rabbit anti-GFAP [DAKO (Z0334)]; rabbit anti-5-HT [Immunostar (20080)], rabbit-anti-IGFR [Santa Cruz (sc-712)] rabbit-anti-pIGFR[3 [Cell signaling technology (3024)], rabbit-anti-pS6 [Cell signaling technology (4857)], rat anti-CD68 [Bio-Rad (MCA 1957)], and Guinea pig-anti-Vglut1 [Synaptic Systems (135304)].
# Pharmacological Treatment. […] A pilot experiment was performed and determined that 4AP (1 mg/kg, 3 mg/kg) and 4AP-MeOH (1 mg/kg) achieved their maximal effects within 1-3 hours post systematic administration (i.p.). […]
# [2] = system: mice with T10 lateral hemisection; assay: Ground walking and treadmill walking after T10 lateral hemisection; type: in vivo, mouse; details: i.p.
# Protocol: (§1) Injury Models. […] Briefly, a midline incision was made over the thoracic vertebrae, followed by a T10 laminectomy. The unilateral hemisection was then performed carefully using both scalpel and micro-scissors, avoiding, to the greatest extent, the damage of the spinal cord dura. The muscle layers were then sutured and the skin was secured with wound clips. All mice received post hoc histological analysis and those with spared CST axons (incomplete lateral hemisection) or with significant less CST axons on the contra-lesional side (over lateral hemisection) at the lumbar spinal cord (L3), exemplified in FIG. 9A, were excluded for behavioral analysis.
# (§2) Pharmacological Treatment. […] All behavioral tests were then accomplished between 1-3 hours post administration.
# [3] = system: mice with T10 lateral hemisection; assay: Irregular ladder walking after spinal cord T10 lateral hemisection; type: in vivo, mouse; details: for error rate, irregular walking task, denervated hindlimb: 12 weeks after injury, AAV injected into sensorimotor cortex 1 day after injury; for performance in irregular ladder, overground, or treadmill walking: injured mice with AAV-OPN/IGF1 or AAV-PLAP, 14 weeks post injury, i.p., quipazine 0.2 mg/kg, 8-OH-DPAT 0.1 mg/kg, SKF 0.1 mg/kg
# Protocol: as §1
# Virus and Protein Injection.
# Irregular Ladder Walking. […] Briefly, the ladder was elevated 30 cm above the ground. […] To prevent animals from learning the pattern, the irregular pattern was changed from trial to trial. All trials were video recorded (Hotshot e64, 100 fps) and paw placement was analyzed twice by blinded observers. Steps with precise placement of the center of the palm on the rung (for both forelimbs and hindlimbs) and digits closed (for forelimbs) were defined as correct steps (hit). All other steps were recorded as errors, which included two types: 1) Miss: when crossing the ladder, the forelimb/hindlimb either completely miss the rung or contact the rung with the wrist/heel instead of the paw; 2) Slip: when crossing the ladder, the mice use a few digits instead of the paw to place on the rungs, causing the subsequent slip on the rungs. The results were expressed as both percentage of total errors and percentage of different placement categories (hit, miss and slip).
# as §2
# [4] = system: optic nerve axons; assay: Optic nerve axon regeneration after optic nerve crush; type: in vivo, mouse
# Protocol: The effects of various forms of active OPN were assessed for their capacity to promote optic nerve axon regeneration in an induced injury model. To express the various forms of active OPN AAVs expressing all forms of mouse OPN were injected intravitreally in anesthetized mice. To induce the injury model the optic nerves were crushed using a pair of forceps two weeks after intravitreal injection. Recombinant proteins (CNTF, IGF1, BDNF) were injected at 0 and 7 days after the crush (1 ul each, 1 ug/ul). Fluorescent cholera toxin beta subunit (CTB-555) was injected intravitreally 12 days after crush to trace the axons before the tissues were fixed 14 days after crush, sectioned and imaged.
# [5] = system: p-IGFRβ; assay: phospho-IGFRβ immunostaining in corticospinal neurons after cortical injection of recombinant proteins, T10 lateral hemisection; type: in vivo, mouse; details: intact or axotomized mature CSNs; recombinant protein alone
# Excerpt: (§3) However, it is unknown whether IGF1 triggers similar signaling activation in adult CSNs and, if so, whether it could be altered by OPN treatment. Thus CSNs were labeled by spinal injection of HiRet-GFP, performed T10 lateral hemisection, and then bilaterally injected recombinant IGF, OPN or OPN/IGF1 proteins were bilaterally injected into the cortex (FIG. 5A). In 3 days, the cortical sections from both injured and intact sides of adult mice were immunostained for three factors. Anti-IGFR, anti-phospho-IGFRβ, an indicator for the activation of the IGF-1 mediated signaling pathways (Hernandez-Sanchez et al., 1995; Siddle, 2012), and anti-phospho-S6 (p-S6), an established marker of mTOR activation, one of the downstream target of IGF1 mediated signaling pathways (Liu et al., 2010; Pollak, 2008).
# (§4) Virus and Protein Injection. […]
# (§5) Immunohistochemistry and Imaging. […] To quantify and compare fluorescence intensity of IGFR, pIGFRβ and pS6 in GFP+ CSNs (FIGS. 2C-2E), CST axons in the dorsal funiculus (FIG. 3G) and CD68 staining (FIG. 10F) and corticofugal projections at multiple subcortical areas (FIG. 7B), and axon density of the intact side in the spinal cord (FIGS. 8E and 8F), all images used for analysis under multiple conditions were taken using the same optical parameters and avoided for saturation. […]
# [6] = system: p-S6; assay: phospho-S6 immunostaining (mTOR activation) in corticospinal neurons after cortical injection of recombinant proteins, T10 lateral hemisection; type: in vivo, mouse; details: intact and axotomized CSNs; recombinant proteins injected into cortex
# Excerpt: as §3, §4, §5
# [7] = system: CST axons; assay: CST regrowth (axon regeneration and midline-crossing sprouting) after T10 lateral hemisection; type: in vivo, mouse; details: AAV-expressed; for regrowth of injured CST axons at the lesion site: horizontal sections covering the lesion; for sprouting of intact CST axons across midline into the denervated side: spinal levels below the injury site
# Excerpt: Since the mice treated with AAV-OPN/IGF1 were co-injected with AAV-channel rhodopsin (ChR2)-mCherry (AAV-ChR2-mCherry) or AAV-ChR2-YFP to the ipsi-lateral or contra-lateral cortex, respectively, at the termination of behavioral assessment, a post hoc examination of the T10 lateral hemisection histology was first performed. Mice with incomplete- or over-hemisection could be readily identified by analyzing labeled CST axons at the lumbar spinal cord and excluded from further analysis (FIG. 2A). CST regrowth was examined by preparing horizontal spinal cord sections covering the lesion sites to assess axon regeneration across the lesion site, and transverse sections of lower spinal cord segments to assess midline-crossing of CST axons from intact side. […] Thus, these sprouting axons play an important role in the observed functional recovery. Therefore, combined treatment of AAV-OPN and AAV-IGF1 not only promotes CST regrowth but also CST-dependent behavioral performance.
# Axon Counting and Quantification. To quantify the number of sprouting axons, a horizontal line was firstly drawn through the central canal and across the lateral rim of the gray matter. Three vertical lines (Mid, Z1, and Z2) were drawn to divide the horizontal line into three equal parts, starting from the central canal to the lateral rim. While Mid denotes midline crossing fibers, Z1 and Z2 are for sprouting fibers at different distance from the midline. Only fibers crossing the three lines were counted on each section. The results were presented after normalization with the number of counted CST fibers at the medulla level.
# For quantifying total labeled CST axon, AAV-ChR2-YFP (FIG. 4D) or AAV-ChR2-mCherry (FIGS. 4C, 7E and 8E) labeled CST fibers were counted at the level of medulla oblongata 1 mm proximal to the pyramidal decussation. Axons were estimated by counting 4 rectangular areas (about 10000 μm^2/area) per section on two adjacent sections.
# To quantify the regenerating axons (FIG. 4D), the number of intersections of chR2-YFP-labeled fibers with a dorsal-ventral line positioned at a defined distance caudal from the lesion center was counted under a 25X objective. Fibers were counted on 3 sections with the main dorsal CST and 1-3 lateral sections with collaterals in the gray matter. The number of counted fibers was normalized by the number of labeled CST axons in the medulla and divided by the number of evaluated sections.
molecule,measurement,setting,value
"Nc1ccncc1 [4-AP, 4-aminopyridine]",adverse effect at higher doses,[1],seizures
same,recovery of treadmill walking performance compared to the control,[2],neither 4-AP nor 4-AP-MeOH had significant effects
same,"error rates, irregular ladder walking task","[3]; 1 mg/kg i.p., mice with OPN/IGF1 treatment","showed a trend of reducing the error rates in mice with OPN/IGF1 treatment, but failed to reach statistical significance"
"OPN: recombinant osteopontin (OPN) protein (Peprotech), injected into cortex or intravitreally",effect of OPN added to CNTF on optic nerve axon regeneration,[4]; OPN with CNTF,no added effect
same,effect of recombinant OPN protein on the optic nerve,"[4]; intravitreal application, combined with IGF1 (FIG. 20)",pro-regenerative effects
same,effect on p-IGFRβ,[5],no overt effect
same,"error rate, irregular walking task, denervated hindlimb",[3],~70%
same,effect on p-S6 levels,[6],not IGF1 or OPN alone
same,regrowth of injured CST axons at the lesion site,[7],significant die-back from the lesion site
same,sprouting of intact CST axons across midline into the denervated side,[7],little sprouting across midline
CCCN(CCC)C1CCc2cccc(O)c2C1 (stereo not drawn) [8-OH-DPAT],"performance in irregular ladder, overground, or treadmill walking",[3],failed to improve
c1ccc2nc(N3CCNCC3)ccc2c1 [quipazine],"performance in irregular ladder, overground, or treadmill walking",[3],failed to improve
IGF1: recombinant human insulin-like growth factor 1 (Peprotech),dose dependence of the regenerative effect,[4]; combined with OPN,dosage dependent
same,effect on p-IGFRβ,[5],no overt effect
same,"error rate, irregular walking task, denervated hindlimb",[3],~70%
same,effect on p-S6 levels,[6],not IGF1 or OPN alone
same,regrowth of injured CST axons at the lesion site,[7],significant die-back from the lesion site
same,sprouting of intact CST axons across midline into the denervated side,[7],little sprouting across midline
Oc1cc2c(c(Cl)c1O)CCNCC2c1ccccc1 (stereo not drawn) [SKF],"performance in irregular ladder, overground, or treadmill walking",[3],failed to improve
same,hindlimb performance in irregular ladder walking on the denervated side,"[3]; injured mice, i.p. 0.1 mg/kg",deteriorated the hindlimb performance
"recombinant CNTF: recombinant CNTF protein injected after optic nerve crush (protein, UniProt P26441 1-200, looked up) Ciliary neurotrophic factor: MAFTEHSPLTPHRRDLCSRSIWLARKIRSDLTALTESYVKHQGLNKNINLDSADGMPVASTDQWSELTEAERLQENLQAYRTFHVLLARLLEDQQVHFTPTEGDFHQAIHTLLLQVAAFAYQIEELMILLEYKIPRNEADGMPINVGDGGLFEKKLWGLKVLQELSQWTVRSIHDLRFISSHQTGIPARGSHYIANNKKM",optic nerve regeneration,"[4]; intravitreal AAV 2 weeks before crush, recombinant proteins at 0 and 7 days after crush (1 ul, 1 ug/ul), 14 days after crush",no effect
